Experimental data published in patent US20260137652A1, “Composition Comprising Non-Phosphorylated Tryptamine” (SINTALICA S.R.L., priority 2022, published 2026).

How the values were obtained:
[1] = Stability test of psilocin for 24 hours: darkening and psilocin concentration by UHPLC-MS; assay type: physicochemical
Method: The inclusion complex obtained by the resuspension of the freeze-dried complex of (β-carotene and 2-hydroxypropylether p-cyclodextrin in the ratio 1:5 with 3 mg of psilocin dissolved in 1 mL of H2O:EtOH (8:2) solution, was tested to evaluate the inclusion complex stability.
The complex stability was evaluated for 24 hours, under different environmental conditions: • Sample A) 22° C. with no light irradiation • Sample B) 30° C. with no light irradiation • Sample C) 22° C. under UV irradiation (using an UVA lamp A=365 nm) • Sample D) Freeze-dried for 30 days • Sample E) 30° C. under UV irradiation (using an UVA lamp A=365 nm)
All the complex stability tests were compared to a “blank” psilocin solution in H2O:EtOH (8:2).
For evaluating psilocin stability chromatographic analyses were performed using a Nexera X2 UHPLC system coupled to a LCMS-8060 mass spectrometer (Shimadzu, Duisburg, Germany). Data acquisition and processing was performed using the LabSolutions software (version 5.95 Shimadzu). The separation of the various tryptamines was achieved by using an Ascentis Express 90 HILIC column (150×2.1 mm, 2.7 pm) (Merck Life Science) and a mobile phase composed of ammonium formate 0.1 M in water as solvent A, and acetonitrile as solvent B. The gradient program was as follows: 0 min, 90% B; 3 min, 75% B; 10 min, 20% B; 13 min 20% B; 15 min 90% B. The flow rate was 0.5 mL min−1; the column oven was set at 40° C. and the injection volume was 1 pL. Mobile phases were filtered through a 0.45 µm membrane.
The synthetic psilocin was weighed in a volumetric flask and diluted with water: ethanol (8:2) at a concentration of 3000 ppm. Then, it was serially diluted to get a final concentration of 0.10 ppm and analyzed according to the above reported method, in order to verify the stability for 24 hours. At time 0, it was 0.11 ppm. After 24 hours the concentration decreased to 0.04 ppm, showing a concentration loss of 60%.

[2] = Stability test by NMR spectroscopy; assay type: physicochemical; details: Sample A: 22° C. with no light irradiation
Method: The same specimens were analyzed also by NMR Spectroscopy using Varian 500 MHz spectrometer equipped with a OneNMR probe.
Samples were recorded using a PRESAT pulse sequence suppressing the signal of H2O and EtOH acquiring 128 scans for each spectrum. H2O (4.64 ppm) was used as reference line.
For the NMR analysis, all samples were treated as follow: 530 pL were poured into NMR tube (5 mm i.d.) then coaxial tube was filled with D2O to lock the solvent frequency.

[3] = tested on: CAR-induced paw edema; test: CAR-induced paw edema, paw volume by plethysmometer; assay type: in vivo, Sprague-Dawley rats; details: rats, measured every hour for 6 h after CAR, vs CAR group
Method: (§1) The biological effect of the complex, in comparison with the psilocin solution, against inflammation was tested by their administration to 8-12 weeks old male rats.
(§2) A composition comprising complex according to example 1, wherein the ratio of β-carotene to 2-hydroxypropylether β-cyclodextrin was 1:5, was used. Complexes (psilocin, β-carotene, ascorbic acid with ratio 1:1:1 and 2-hydroxypropylether β-cyclodextrin) containing two different concentrations of psilocin have been tested: • a complex containing 3 mg of psilocin, • a complex containing 10 mg of psilocin.
(§3) The study was performed using male Sprague-Dawley rats (200-250 g; Envigo, Milan, Italy). Food and water were accessible ad libitum. Rats were concurrently subjected to a singular subplantar injection of CAR (100 pL of saline solution containing 1% CAR). Paw edema was measured with a plethysmometer (Ugo Basile, Comerio, Varese, Italy) (Salvemini, D.; Wang, Z.-Q.; Wyatt, P. S.; Bourdon, D. M.; Marino, M. H.; Manning, P. T.; Currie, M. G., “Nitric oxide: A key mediator in the early and late phase of carrageenan-induced rat paw inflammation”, Br. J. Pharmacol. 1996, 118, 829-838) prior to CAR injection and every hour for 6 h. Edema was expressed as the increase in paw volume (mL) after CAR injection relative to the pre-injection value for all animals. Scores were expressed as paw volume difference (mL).
All values are expressed as mean±standard deviation (SD) of N=10 observations. For the in-vivo studies, N represents the number of animals studied. Data were analyzed by one-way ANOVA followed by a Bonferroni post-hoc test for multiple comparisons. A p-value less than 0.05 will be considered significant. #p<0.05 vs. CTR, *p<0.05 vs. CAR, ##p<0.01 vs. CTR, **p<0.01 vs. CAR, ###p<0.001 vs. CTR, ***p<0.001 vs. CAR, °p<0.05 vs. 3 m/Kg, § p<0.05 vs. 10 mg/Kg, °°p<0.01 vs. 3 mg/Kg, §§ p<0.01 vs. 10 mg/Kg, 000 p<0.001 vs. 3 mg/Kg, §§§ p<0.001 vs. 10 mg/Kg.

[4] = tested on: paw tissues; test: Histology (H&E staining) of paw tissues after CAR injection; assay type: in vivo, Sprague-Dawley rats; details: for inflammatory cell infiltration and edema / histological score (H&E): rat paw tissues 6 h after CAR injection
Method: as §1, §2, §3
Paw tissues were collected 6 h after CAR injection. Samples were fixed in 10% formaldehyde solution in phosphate buffer saline (PBS) at room temperature for 24 h, dehydrated by graded series of ethanol and at the list embedded in Paraplast (Sherwood Medical, Mahwah, NJ, USA). Sections of 7-pm thickness were cut with a microtome, deparaffinized with xylene and stained with hematoxylin and eosin (H&E). All sections were examined using an Axiovision Zeiss (Milan, Italy) microscope by two investigators blinded to the treatment conditions. […]
All values are expressed as mean±standard deviation (SD) of N=10 observations. […] Data were analyzed by one-way ANOVA followed by a Bonferroni post-hoc test for multiple comparisons. […]

[5] = tested on: MPO; test: MPO analysis (marker of neutrophil infiltration) after CAR injection; assay type: in vivo, Sprague-Dawley rats; details: rats; for MPO activity: vs CAR group
Method: as §1, §2, §3
The activity of MPO (myeloperoxidase is an enzyme released by neutrophils and used as a marker of neutrophil infiltration) was assessed as previously described (Mullane, K. M.; Kraemer, R.; Smith, B. “Myeloperoxidase activity as a quantitative assessment of neutrophil infiltration into ischemic myocardium.” J. Pharmacol. Methods 1985, 14, 157-167). The rate of change in absorbance was calculated spectrophotometrically at 650 nm. MPO activity was measured in U per gram weight of wet tissue and was quantified as the quantity of enzyme degrading […] of peroxide 1 min at 37° C.
All values are expressed as mean±standard deviation (SD) of N=10 observations. For the in-vivo studies, N represents the number of animals studied. […]

[6] = tested on: mechanical allodynia; test: Pain behavior: mechanical allodynia, Von Frey test after CAR injection; assay type: in vivo, Sprague-Dawley rats; details: rats, 1-6 hours post CAR injection, as compared to CAR group
[7] = Sample B: 30° C. with no light irradiation, 24 hours

CN(C)CCc1c[nH]c2cccc(O)c12 [psilocin, 4-hydroxy-N,N-dimethyltryptamine]
darkening ([1]; Sample A: 22° C. with no light irradiation, 24 h): started the darkening process since the first 2 hours of storing
psilocin concentration after 24 hours ([1]; Sample A: 22° C. with no light irradiation, H2O:EtOH (8:2), after 24 hours): 0.04 ppm
psilocin concentration at time 0 ([1]; Sample A: 22° C. with no light irradiation, H2O:EtOH (8:2), time 0): 0.11 ppm
loss of psilocin concentration ([1]; Sample A: 22° C. with no light irradiation, after 24 hours): 60%
psilocin concentration trend ([1]; Sample A: 22° C. with no light irradiation, time 0 vs after 24 hours): decreased
darkening [1, 7]: darkening process was observed
psilocin concentration trend [1, 7]: decreased during 24 hours
darkening ([1]; Sample C: 22° C. under UV irradiation (365 nm), 24 h): started the darkening process since the first 2 hours of storing
psilocin concentration trend ([1]; Sample C: 22° C. under UV irradiation (365 nm), 24 hours): decreasing during 24 hours
darkening ([1]; Sample D: freeze-dried, redissolved 30 days after freeze-drying, ambient temperature, 24 h): started the darkening process since the first 2 hours of storing
darkening ([1]; Sample E: 30° C. under UV irradiation (365 nm), 24 h): Darkening was observed
psilocin concentration trend ([1]; Sample E: 30° C. under UV irradiation (365 nm), 24 hours): decreased during 24 hours
degradation product by NMR compared with the other solutions [2]: less degradation product
CAR-induced paw edema (paw volume) ([3]; 3 mg/Kg): reduction of paw volume
CAR-induced paw edema (paw volume) ([3]; 3 mg/Kg, listed as Psilocin): significantly reduced
CAR-induced paw edema (paw volume) ([3]; 10 mg/Kg): reduction of paw volume
CAR-induced paw edema (paw volume) ([3]; 10 mg/Kg, listed as Psilocin): significantly reduced
inflammatory cell infiltration and edema / histological score (H&E) ([4]; 3 mg/Kg): meaningfully decreased
inflammatory cell infiltration and edema / histological score (H&E) ([4]; 10 mg/Kg): meaningfully decreased
histological anti-inflammatory effect of psilocin as compared to the complex administration ([4]; all doses (3 and 10 mg/Kg), rats): better anti-inflammatory effect
MPO activity ([5]; 3 mg/Kg): reduced the MPO activity
MPO activity ([5]; 10 mg/Kg): reduced the MPO activity
MPO activity effect of psilocin as compared to the complex administration ([5]; all doses (3 and 10 mg/Kg)): significant effect
paw-withdrawal threshold (Von Frey) ([6]; 3 mg/Kg): significantly increased
paw-withdrawal threshold (Von Frey) ([6]; 10 mg/Kg): significantly increased
